The source made the active and inactive calls. The rule behind the calls is not given here.
Legend:
[1] = tested on: DLD-1; test: Induction of apoptosis in human DLD-1 cells harboring KRAS G13D mutant assessed as cleaved-PRAP at 0.1 nM measured after 24 to 48 hrs; assay type: functional, cell-based; settings: time 24-48 hrs
[2] = Efflux ratio of apparent permeability from basolateral to apical side over apical to basolateral side in human Caco-2 cells at 10 uM
[3] = target: T1, Son of sevenless homolog 1 (Homo sapiens, UniProt Q07889); test: Binding affinity to SOS1 (unknown origin) assessed as dissociation constant by SPR analysis
T1 sequence (Q07889 whole entry): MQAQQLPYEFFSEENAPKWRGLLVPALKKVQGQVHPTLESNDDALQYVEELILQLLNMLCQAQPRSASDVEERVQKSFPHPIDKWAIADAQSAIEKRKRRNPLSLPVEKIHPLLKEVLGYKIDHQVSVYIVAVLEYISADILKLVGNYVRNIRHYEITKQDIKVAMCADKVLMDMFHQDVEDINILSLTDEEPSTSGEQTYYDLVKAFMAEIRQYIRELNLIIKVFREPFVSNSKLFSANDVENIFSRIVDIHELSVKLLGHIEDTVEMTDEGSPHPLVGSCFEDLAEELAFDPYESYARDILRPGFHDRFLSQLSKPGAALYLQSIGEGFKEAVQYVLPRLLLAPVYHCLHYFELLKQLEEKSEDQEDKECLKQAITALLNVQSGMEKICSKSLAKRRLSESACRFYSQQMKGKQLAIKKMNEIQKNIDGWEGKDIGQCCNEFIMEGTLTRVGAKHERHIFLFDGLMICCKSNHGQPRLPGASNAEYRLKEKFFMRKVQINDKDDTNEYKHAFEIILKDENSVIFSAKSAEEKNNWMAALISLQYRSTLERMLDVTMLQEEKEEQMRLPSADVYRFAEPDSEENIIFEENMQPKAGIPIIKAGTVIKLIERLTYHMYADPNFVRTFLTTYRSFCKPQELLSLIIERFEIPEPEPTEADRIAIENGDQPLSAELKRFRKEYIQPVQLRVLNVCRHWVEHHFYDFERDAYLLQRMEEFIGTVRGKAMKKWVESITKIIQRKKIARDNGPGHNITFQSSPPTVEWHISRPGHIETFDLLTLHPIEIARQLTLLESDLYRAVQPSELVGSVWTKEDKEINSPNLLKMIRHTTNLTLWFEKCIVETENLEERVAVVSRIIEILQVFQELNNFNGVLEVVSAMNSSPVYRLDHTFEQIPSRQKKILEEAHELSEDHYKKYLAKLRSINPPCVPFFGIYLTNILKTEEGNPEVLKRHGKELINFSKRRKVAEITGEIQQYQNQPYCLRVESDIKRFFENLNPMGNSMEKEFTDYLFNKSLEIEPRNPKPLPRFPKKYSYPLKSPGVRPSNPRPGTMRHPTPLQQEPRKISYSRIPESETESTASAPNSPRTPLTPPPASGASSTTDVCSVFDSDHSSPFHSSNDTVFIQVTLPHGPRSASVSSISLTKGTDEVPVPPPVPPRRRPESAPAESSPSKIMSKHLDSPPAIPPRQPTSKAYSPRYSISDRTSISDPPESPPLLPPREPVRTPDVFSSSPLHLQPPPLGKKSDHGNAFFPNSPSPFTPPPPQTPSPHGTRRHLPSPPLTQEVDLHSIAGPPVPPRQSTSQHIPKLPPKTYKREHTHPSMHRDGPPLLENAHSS

[4] = target: T2, SOS1-KRAS (Homo sapiens, UniProt Q07889); test: Inhibition of SOS1/KRAS G12D mutant (unknown origin) protein-protein interaction using GDP nucleotide as substrate measured after 30 mins by Alphascreen assay
[5] = target: Epidermal growth factor receptor (Homo sapiens, UniProt P00533); test: Inhibition of EGFR (unknown origin)
Sequence of Epidermal growth factor receptor (P00533 whole entry): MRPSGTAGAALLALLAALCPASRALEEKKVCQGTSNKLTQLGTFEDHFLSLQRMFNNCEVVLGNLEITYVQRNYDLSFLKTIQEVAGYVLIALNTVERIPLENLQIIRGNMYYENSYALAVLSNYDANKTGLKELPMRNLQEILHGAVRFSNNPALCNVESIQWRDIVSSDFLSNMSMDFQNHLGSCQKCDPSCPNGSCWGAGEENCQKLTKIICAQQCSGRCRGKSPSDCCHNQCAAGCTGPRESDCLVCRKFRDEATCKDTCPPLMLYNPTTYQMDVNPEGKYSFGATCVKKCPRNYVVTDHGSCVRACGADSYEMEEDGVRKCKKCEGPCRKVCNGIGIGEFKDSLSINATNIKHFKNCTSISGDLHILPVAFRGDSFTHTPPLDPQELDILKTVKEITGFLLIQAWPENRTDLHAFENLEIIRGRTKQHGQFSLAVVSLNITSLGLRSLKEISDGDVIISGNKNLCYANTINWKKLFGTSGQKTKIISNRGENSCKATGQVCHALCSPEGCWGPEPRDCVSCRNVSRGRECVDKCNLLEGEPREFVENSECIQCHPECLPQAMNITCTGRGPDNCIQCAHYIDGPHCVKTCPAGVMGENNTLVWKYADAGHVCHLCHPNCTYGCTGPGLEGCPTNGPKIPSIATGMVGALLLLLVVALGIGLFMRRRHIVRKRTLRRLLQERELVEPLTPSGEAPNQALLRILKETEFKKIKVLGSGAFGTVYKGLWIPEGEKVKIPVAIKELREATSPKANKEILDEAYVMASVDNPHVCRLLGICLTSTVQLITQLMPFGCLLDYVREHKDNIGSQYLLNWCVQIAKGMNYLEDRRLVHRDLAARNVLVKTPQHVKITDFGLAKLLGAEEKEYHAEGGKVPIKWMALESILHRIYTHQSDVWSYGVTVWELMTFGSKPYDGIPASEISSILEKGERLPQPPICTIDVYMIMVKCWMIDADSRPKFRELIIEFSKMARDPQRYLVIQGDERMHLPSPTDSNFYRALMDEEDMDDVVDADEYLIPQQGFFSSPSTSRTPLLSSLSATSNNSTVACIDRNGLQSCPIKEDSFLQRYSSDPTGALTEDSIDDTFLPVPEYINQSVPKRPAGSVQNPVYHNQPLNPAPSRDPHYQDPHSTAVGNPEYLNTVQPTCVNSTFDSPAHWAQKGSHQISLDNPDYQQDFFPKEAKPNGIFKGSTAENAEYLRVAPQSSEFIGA

[6] = Metabolic stability in human hepatocytes in presence of 50% serum; assay type: ADME, cell-based, Hepatocyte
[7] = Anticancer activity against human DLD-1 cells xenografted rat model assessed as tumor growth inhibition at 50 mg/kg measured; assay type: functional; settings: read-out: TGI
[8] = Metabolic stability in rat hepatocytes in presence of 50% serum; assay type: ADME, cell-based, Hepatocyte
[9] = Oral bioavailability in rat; assay type: ADME, organism-based; settings: in vivo
[10] = Metabolic stability in mouse hepatocytes in presence of 50% serum; assay type: ADME, cell-based, Hepatocyte
[11] = Oral bioavailability in mouse; assay type: ADME, organism-based; settings: in vivo
[12] = tested on: DLD-1; test: Induction of apoptosis in human DLD-1 cells harboring KRAS G13D mutant assessed as cleaved-PRAP measured after 24 to 48 hrs; assay type: functional, cell-based; settings: time 24-48 hrs
[13] = target: T2, SOS1-KRAS; test: Activation of SOS1/KRAS G12D mutant (unknown origin) protein-protein interaction using GDP nucleotide as substrate measured after 30 mins by Alphascreen assay
[14] = tested on: DLD-1; test: Induction of apoptosis in human DLD-1 cells harboring KRAS G13D mutant assessed as cleaved-PRAP at 100 nM measured after 24 to 48 hrs; assay type: functional, cell-based; settings: time 24-48 hrs

**Q.** With `CC(=O)Nc1cccc(-n2c(=O)n(C3CC3)c(=O)c3c(Nc4ccc(I)cc4F)n(C)c(=O)c(C)c32)c1` as the molecule, how does the Activity [1] read?
**A.** Its Activity is “Active”.

**Q.** With `COc1cc2nc(C)nc(N[C@H](C)c3ccccc3)c2cc1OC` as the molecule, how does the efflux ratio at 10 µM [2] read?
**A.** Its efflux ratio at 10 µM is 0.6.

**Q.** And the Kd [3]?
**A.** Its Kd is 469 nM.

**Q.** What about the IC50 [4] of the same molecule?
**A.** Its IC50 is 453 nM.

**Q.** What about the IC50 [5] of the same molecule?
**A.** The IC50 was 2800 nM.

**Q.** For `COc1ccc2nc(C)nc(N[C@H](C)c3cc(N)cc(C(F)(F)F)c3)c2c1`, which Kd [3] is on record?
**A.** The Kd was 24 nM.

**Q.** What about the IC50 [4] of the same molecule?
**A.** Its IC50 is 33 nM.

**Q.** With `CC(C)c1noc2ncc(C(=O)NC(C)c3cccc(S(N)(=O)=O)c3)cc12` (stereo unspecified) as the molecule, how does the Kd [3] read?
**A.** Its Kd is 937 nM.

**Q.** And the IC50 [4]?
**A.** Its IC50 is 1190 nM.

**Q.** With `COc1cc2nc(C)nc(N[C@H](C)c3cccc(C(F)(F)F)c3)c2cc1OC` as the molecule, how does the efflux ratio at 10 µM [2] read?
**A.** The efflux ratio at 10 µM was 0.3.

**Q.** And the Kd [3]?
**A.** The Kd was 104 nM.

**Q.** What about the IC50 [4] of the same molecule?
**A.** The IC50 was 106 nM.

**Q.** What about the IC50 [5] of the same molecule?
**A.** The IC50 was over 20000 nM.

**Q.** For `COc1cc2nc(C)nc(N[C@H](C)c3cc(N)cc(C(F)(F)F)c3)c2cc1O[C@H]1CCOC1`, which Stability [6] is on record?
**A.** The Stability was 14%.

**Q.** What about the inhibition in vivo at 50 mg/kg [7] of the same molecule?
**A.** Its inhibition in vivo at 50 mg/kg is 37%.

**Q.** What about the Stability [8] of the same molecule?
**A.** Its Stability is 28%.

**Q.** What about the bioavailability [9] of the same molecule?
**A.** Its bioavailability is 100%.

**Q.** What about the Stability [10] of the same molecule?
**A.** Its Stability is 45%.

**Q.** And the bioavailability [11]?
**A.** The bioavailability was 100%.

**Q.** And the Activity [12]?
**A.** Its Activity is “Active”.

**Q.** With `COc1cc2nc(C)nc(N[C@H](C)c3cc(N)cc(C(F)(F)F)c3)c2cc1OC` as the molecule, how does the efflux ratio at 10 µM [2] read?
**A.** The efflux ratio at 10 µM was 0.7.

**Q.** And the Kd [3]?
**A.** Its Kd is 16 nM.

**Q.** What about the IC50 [4] of the same molecule?
**A.** The IC50 was 15 nM.

**Q.** With `COc1cc2nc(C)nc(N[C@H](C)c3cccc(S(N)(=O)=O)c3)c2cc1OC` as the molecule, how does the efflux ratio at 10 µM [2] read?
**A.** The efflux ratio at 10 µM was 50.

**Q.** What about the Kd [3] of the same molecule?
**A.** The Kd was 16 nM.

**Q.** And the IC50 [4]?
**A.** The IC50 was 56 nM.

**Q.** What about the IC50 [5] of the same molecule?
**A.** Its IC50 is over 20000 nM.

**Q.** What does the source list for `N[C@@H](Cc1c[nH]c2ccccc12)C(=O)NC1CCN(Cc2c[nH]c3ccccc23)CC1`?
**A.** EC50 [13]: 11100 nM; Kd [3]: 19300 nM

**Q.** Which Kd [3] does the source give for `Cc1nc(N[C@H](C)c2cc(N)cc(C(F)(F)F)c2)c2cc(Cl)ccc2n1` here?
**A.** Its Kd is 1490 nM.

**Q.** What about the IC50 [4] of the same molecule?
**A.** Its IC50 is 3830 nM.

**Q.** Which efflux ratio at 10 µM [2] does the source give for `COc1cc2nc(C)nc(N[C@H](C)c3cccc(N)c3)c2cc1OC` here?
**A.** The efflux ratio at 10 µM was 1.3.

**Q.** What about the Kd [3] of the same molecule?
**A.** Its Kd is 123 nM.

**Q.** What about the IC50 [4] of the same molecule?
**A.** The IC50 was 355 nM.

**Q.** Which inhibition in vivo at 50 mg/kg [7] does the source give for `CN(C)C/C=C/C(=O)Nc1cc2c(Nc3ccc(F)c(Cl)c3)ncnc2cc1O[C@H]1CCOC1` [AFATINIB] here?
**A.** Its inhibition in vivo at 50 mg/kg is 7%.

**Q.** What about the Activity [14] of the same molecule?
**A.** The Activity was “Active”.

**Q.** With `Cc1nc(N[C@H](C)c2cc(N)cc(C(F)(F)F)c2)c2cc(F)ccc2n1` as the molecule, how does the EC50 [13] read?
**A.** The EC50 was 939 nM.

**Q.** What about the Kd [3] of the same molecule?
**A.** The Kd was 751 nM.

**Q.** Which Kd [3] does the source give for `COc1cc2ncnc(N[C@H](C)c3ccccc3)c2cc1OC` here?
**A.** The Kd was 301 nM.

**Q.** And the IC50 [4]?
**A.** Its IC50 is 1050 nM.

**Q.** What about the IC50 [5] of the same molecule?
**A.** The IC50 was 1 nM.
